Columns and labels:
Type in all cases: cell-based
Settings in all cases: compounds at 50 nM and 500 nM
WEE1 = biological target: T1, WEE1 (Homo sapiens, UniProt P30291+Q96SW2); assay: Western blot degradation of WEE1 in hPBMCs (24 h)
T1 construct: The supernatant was aspirated as the extracted total cell protein; endogenous in cells; host or cells: human peripheral blood mononuclear cells (hPBMCs)
Procedure, shortened: (§1)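 PBMC Western blot, 24 h treatment; test levels 50 nM and 500 nM. Band density ÷ internal control, normalised → % remaining; degradation (%) = 1 − remaining.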

IKZF1 = biological target: T2, IKZF1 (Homo sapiens, UniProt Q13422+Q96SW2); assay: Western blot degradation of IKZF1 in hPBMCs (24 h)
T2 construct: The supernatant was aspirated as the extracted total cell protein; endogenous in cells; host or cells: human peripheral blood mononuclear cells (hPBMCs)
T2 sequence (Q13422 whole entry): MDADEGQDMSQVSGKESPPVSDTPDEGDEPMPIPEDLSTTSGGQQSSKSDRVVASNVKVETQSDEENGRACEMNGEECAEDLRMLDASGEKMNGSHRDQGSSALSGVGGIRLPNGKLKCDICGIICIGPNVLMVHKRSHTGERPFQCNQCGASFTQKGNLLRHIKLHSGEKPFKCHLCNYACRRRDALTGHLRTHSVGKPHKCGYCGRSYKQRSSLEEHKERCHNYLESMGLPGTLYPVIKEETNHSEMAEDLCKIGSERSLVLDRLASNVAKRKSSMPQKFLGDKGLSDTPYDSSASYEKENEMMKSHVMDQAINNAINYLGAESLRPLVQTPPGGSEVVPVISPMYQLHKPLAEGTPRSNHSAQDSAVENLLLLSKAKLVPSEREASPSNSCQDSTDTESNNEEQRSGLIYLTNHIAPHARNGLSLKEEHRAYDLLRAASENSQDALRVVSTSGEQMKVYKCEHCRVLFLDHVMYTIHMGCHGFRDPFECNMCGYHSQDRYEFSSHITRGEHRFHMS
T2 sequence (Q96SW2 whole entry): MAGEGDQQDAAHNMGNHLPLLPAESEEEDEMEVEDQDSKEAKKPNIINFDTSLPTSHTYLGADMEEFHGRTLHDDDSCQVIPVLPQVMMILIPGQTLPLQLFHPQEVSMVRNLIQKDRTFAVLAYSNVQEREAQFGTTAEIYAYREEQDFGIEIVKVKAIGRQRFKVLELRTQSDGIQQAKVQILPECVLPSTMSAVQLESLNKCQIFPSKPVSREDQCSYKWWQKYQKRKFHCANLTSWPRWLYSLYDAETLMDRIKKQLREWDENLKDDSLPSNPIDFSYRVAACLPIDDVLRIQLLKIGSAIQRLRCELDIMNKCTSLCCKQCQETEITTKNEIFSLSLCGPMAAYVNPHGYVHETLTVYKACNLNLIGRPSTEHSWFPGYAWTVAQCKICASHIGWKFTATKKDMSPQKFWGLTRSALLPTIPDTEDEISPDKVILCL
T2 sequence (Q16531 whole entry partner): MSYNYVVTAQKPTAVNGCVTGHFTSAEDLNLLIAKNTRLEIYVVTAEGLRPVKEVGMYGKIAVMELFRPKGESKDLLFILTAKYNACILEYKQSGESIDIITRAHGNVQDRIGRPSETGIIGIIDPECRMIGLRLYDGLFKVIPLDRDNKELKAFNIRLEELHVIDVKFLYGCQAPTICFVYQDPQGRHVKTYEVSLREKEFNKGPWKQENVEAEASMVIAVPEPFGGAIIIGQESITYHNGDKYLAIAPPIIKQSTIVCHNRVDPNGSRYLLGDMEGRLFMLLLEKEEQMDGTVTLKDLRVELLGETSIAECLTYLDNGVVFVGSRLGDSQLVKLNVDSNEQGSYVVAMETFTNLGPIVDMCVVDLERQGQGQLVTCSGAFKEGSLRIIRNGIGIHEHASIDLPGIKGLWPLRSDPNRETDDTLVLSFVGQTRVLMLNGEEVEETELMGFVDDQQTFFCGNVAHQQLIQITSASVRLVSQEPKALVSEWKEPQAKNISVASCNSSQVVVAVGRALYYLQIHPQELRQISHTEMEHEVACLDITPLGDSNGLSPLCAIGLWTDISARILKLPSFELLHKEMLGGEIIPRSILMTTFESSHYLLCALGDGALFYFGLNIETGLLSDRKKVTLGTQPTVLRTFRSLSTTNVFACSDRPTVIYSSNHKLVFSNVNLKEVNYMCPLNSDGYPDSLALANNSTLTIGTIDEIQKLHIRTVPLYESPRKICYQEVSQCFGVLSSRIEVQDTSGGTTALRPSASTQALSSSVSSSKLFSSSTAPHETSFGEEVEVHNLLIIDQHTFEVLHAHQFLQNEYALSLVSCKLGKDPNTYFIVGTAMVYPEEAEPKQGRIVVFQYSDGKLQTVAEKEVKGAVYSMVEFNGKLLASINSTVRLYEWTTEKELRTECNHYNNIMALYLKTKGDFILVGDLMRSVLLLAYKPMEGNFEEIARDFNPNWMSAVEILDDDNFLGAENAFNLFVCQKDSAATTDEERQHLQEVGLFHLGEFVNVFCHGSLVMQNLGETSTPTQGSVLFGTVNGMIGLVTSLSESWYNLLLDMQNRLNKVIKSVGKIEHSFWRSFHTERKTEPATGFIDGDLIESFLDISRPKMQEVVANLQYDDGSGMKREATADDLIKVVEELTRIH
Procedure, shortened: as §1

IKZF2 = biological target: T3, IKZF2 (Homo sapiens, UniProt Q96SW2+Q9UKS7); assay: Western blot degradation of IKZF2 in hPBMCs (24 h)
T3 construct: The supernatant was aspirated as the extracted total cell protein; endogenous in cells; host or cells: human peripheral blood mononuclear cells (hPBMCs)
Procedure, shortened: as §1

IKZF3 = biological target: T4, IKZF3 (Homo sapiens, UniProt Q96SW2+Q9UKT9); assay: Western blot degradation of IKZF3 in hPBMCs (24 h)
T4 construct: The supernatant was aspirated as the extracted total cell protein; endogenous in cells; host or cells: human peripheral blood mononuclear cells (hPBMCs)
T4 sequence (Q9UKT9 whole entry): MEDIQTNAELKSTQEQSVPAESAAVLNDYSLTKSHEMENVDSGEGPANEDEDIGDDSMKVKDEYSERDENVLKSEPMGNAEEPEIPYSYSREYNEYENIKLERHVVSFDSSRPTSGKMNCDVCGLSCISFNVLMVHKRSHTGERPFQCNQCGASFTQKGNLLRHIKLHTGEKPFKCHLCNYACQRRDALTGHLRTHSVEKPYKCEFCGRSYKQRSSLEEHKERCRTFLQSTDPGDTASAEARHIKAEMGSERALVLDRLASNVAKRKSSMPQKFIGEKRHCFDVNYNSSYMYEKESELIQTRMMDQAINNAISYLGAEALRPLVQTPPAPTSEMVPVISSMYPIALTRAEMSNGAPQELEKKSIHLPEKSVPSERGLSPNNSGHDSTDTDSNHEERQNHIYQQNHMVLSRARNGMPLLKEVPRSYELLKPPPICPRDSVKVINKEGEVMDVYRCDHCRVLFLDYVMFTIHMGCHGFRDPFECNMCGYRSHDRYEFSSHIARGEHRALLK
T4 sequence (Q96SW2 whole entry): as the sequence (Q96SW2 whole entry) above
T4 sequence (Q16531 whole entry partner): as the sequence (Q16531 whole entry partner) above
Procedure, shortened: as §1

CK1α = biological target: T5, CK1α (Homo sapiens, UniProt P48729+Q96SW2); assay: Western blot degradation of CK1α in hPBMCs (24 h)
T5 construct: The supernatant was aspirated as the extracted total cell protein; endogenous in cells; host or cells: human peripheral blood mononuclear cells (hPBMCs)
T5 sequence (P48729 whole entry): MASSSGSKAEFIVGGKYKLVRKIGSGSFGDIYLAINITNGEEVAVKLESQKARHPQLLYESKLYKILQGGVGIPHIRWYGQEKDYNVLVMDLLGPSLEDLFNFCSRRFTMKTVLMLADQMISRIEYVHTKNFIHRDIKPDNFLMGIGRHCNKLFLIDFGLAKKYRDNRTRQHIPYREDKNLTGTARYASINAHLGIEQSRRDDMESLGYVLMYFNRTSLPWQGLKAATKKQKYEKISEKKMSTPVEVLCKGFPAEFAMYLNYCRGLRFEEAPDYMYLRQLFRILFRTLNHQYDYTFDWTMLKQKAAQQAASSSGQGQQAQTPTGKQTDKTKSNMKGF
T5 sequence (Q96SW2 whole entry): as the sequence (Q96SW2 whole entry) above
T5 sequence (Q16531 whole entry partner): as the sequence (Q16531 whole entry partner) above
Procedure, shortened: as §1

GSPT1 = biological target: T6, GSPT1 (Homo sapiens, UniProt P15170+Q96SW2); assay: Western blot degradation of GSPT1 in hPBMCs (24 h)
T6 construct: The supernatant was aspirated as the extracted total cell protein; endogenous in cells; host or cells: human peripheral blood mononuclear cells (hPBMCs)
T6 sequence (P15170 whole entry): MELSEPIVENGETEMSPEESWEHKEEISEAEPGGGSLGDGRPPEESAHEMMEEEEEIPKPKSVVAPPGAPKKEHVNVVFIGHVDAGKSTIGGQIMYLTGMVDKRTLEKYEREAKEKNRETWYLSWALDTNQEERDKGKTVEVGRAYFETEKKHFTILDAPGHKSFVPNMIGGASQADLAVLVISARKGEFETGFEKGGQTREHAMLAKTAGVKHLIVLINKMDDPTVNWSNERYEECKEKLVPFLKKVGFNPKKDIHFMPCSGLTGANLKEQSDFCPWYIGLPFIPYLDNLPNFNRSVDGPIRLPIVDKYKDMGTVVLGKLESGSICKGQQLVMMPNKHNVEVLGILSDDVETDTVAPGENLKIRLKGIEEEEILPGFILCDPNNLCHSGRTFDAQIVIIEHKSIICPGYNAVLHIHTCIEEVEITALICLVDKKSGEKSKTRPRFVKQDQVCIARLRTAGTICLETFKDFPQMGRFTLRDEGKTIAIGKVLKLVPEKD
T6 sequence (Q96SW2 whole entry): as the sequence (Q96SW2 whole entry) above
T6 sequence (Q16531 whole entry partner): as the sequence (Q16531 whole entry partner) above
Procedure, shortened: as §1

T1 sequence (P30291 whole entry): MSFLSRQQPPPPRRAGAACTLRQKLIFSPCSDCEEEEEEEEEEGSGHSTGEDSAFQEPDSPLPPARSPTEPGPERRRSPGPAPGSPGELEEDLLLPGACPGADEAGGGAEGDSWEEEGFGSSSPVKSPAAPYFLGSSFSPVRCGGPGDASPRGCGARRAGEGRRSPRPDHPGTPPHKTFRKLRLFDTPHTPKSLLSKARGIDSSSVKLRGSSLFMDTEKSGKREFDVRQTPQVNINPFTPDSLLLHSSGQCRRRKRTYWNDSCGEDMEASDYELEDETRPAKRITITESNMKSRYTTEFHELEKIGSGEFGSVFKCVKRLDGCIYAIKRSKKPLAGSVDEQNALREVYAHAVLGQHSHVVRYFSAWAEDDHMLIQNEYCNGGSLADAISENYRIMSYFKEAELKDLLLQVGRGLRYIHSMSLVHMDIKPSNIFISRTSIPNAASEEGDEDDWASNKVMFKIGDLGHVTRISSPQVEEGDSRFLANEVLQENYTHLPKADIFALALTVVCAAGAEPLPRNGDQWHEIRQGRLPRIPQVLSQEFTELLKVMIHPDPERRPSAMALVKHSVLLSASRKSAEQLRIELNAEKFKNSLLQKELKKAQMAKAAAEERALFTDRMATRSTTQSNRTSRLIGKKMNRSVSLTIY
T1 sequence (Q96SW2 whole entry): as the sequence (Q96SW2 whole entry) above
T1 sequence (Q16531 whole entry partner): as the sequence (Q16531 whole entry partner) above

Row | SMILES | WEE1 substrate protein remaining % (WEE1) | IKZF1 substrate protein remaining % (IKZF1) | IKZF2 substrate protein remaining % (IKZF2) | IKZF3 substrate protein remaining % (IKZF3) | CK1α substrate protein remaining % (CK1α) | GSPT1 substrate protein remaining % (GSPT1)
1 | O=C1CCN(N2Cc3cc(CN4CCN(c5cnccn5)CC4)ccc3C2=O)C(=O)N1 [GT-07160, 1-(1-oxo-5-((4-(pyrazin-2-yl)piperazin-1-yl)methyl)isoindolin-2-yl)dihydropyrimidine-2,4(1H,3H)-dione] | B (80%< substrate protein remaining % ≤100%) | B (80%< substrate protein remaining % ≤100%) | A (0% ≤ substrate protein remaining % ≤80%) | B (80%< substrate protein remaining % ≤100%) | A (0% ≤ substrate protein remaining % ≤80%) | A (0% ≤ substrate protein remaining % ≤80%)
2 | O=C1CCN(N2Cc3cc(CN4CCN(c5c(Cl)cccc5Cl)CC4)ccc3C2=O)C(=O)N1 [GT-06774, 1-(5-((4-(2,6-dichlorophenyl)piperazin-1-yl)methyl)-1-oxoisoindolin-2-yl)dihydropyrimidine-2,4(1H,3H)-dione] | B (80%< substrate protein remaining % ≤100%) | B (80%< substrate protein remaining % ≤100%) | A (0% ≤ substrate protein remaining % ≤80%) | A (0% ≤ substrate protein remaining % ≤80%) | A (0% ≤ substrate protein remaining % ≤80%) | A (0% ≤ substrate protein remaining % ≤80%)
3 | O=C1CCN(N2Cc3cc(CN4CCC(n5c(=O)[nH]c6cc(F)ccc65)CC4)ccc3C2=O)C(=O)N1 [GT-07579, 1-(5-((4-(5-fluoro-2-oxo-2,3-dihydro-1H-benzo[d]imidazol-1-yl)piperidin-1-yl)methyl)-1-oxoisoindolin-2-yl)dihydropyrimidine-2,4(1H,3H)-dione] | A (0% ≤ substrate protein remaining % ≤80%) | A (0% ≤ substrate protein remaining % ≤80%) | A (0% ≤ substrate protein remaining % ≤80%) | B (80%< substrate protein remaining % ≤100%) | B (80%< substrate protein remaining % ≤100%) | A (0% ≤ substrate protein remaining % ≤80%)
4 | O=C1CCN(N2Cc3cc(CN4CCn5c(nnc5C(F)(F)F)C4)ccc3C2=O)C(=O)N1 [GT-07719, 1-(1-oxo-5-((3-(trifluoromethyl)-5,6-dihydro-[1,2,4]triazolo[4,3-a]pyrazin-7 (8H)-yl)methyl)isoindolin-2-yl)dihydropyrimidine-2,4(1H,3H)-dione] | B (80%< substrate protein remaining % ≤100%) | B (80%< substrate protein remaining % ≤100%) | A (0% ≤ substrate protein remaining % ≤80%) | A (0% ≤ substrate protein remaining % ≤80%) | A (0% ≤ substrate protein remaining % ≤80%) | A (0% ≤ substrate protein remaining % ≤80%)
5 | O=C1CCN(N2C(=O)c3ccc(CN4CCN(c5ncnc6sc(-c7ccccc7)cc56)CC4)cc3C2=O)C(=O)N1 [GT-08097, 2-(2,4-dioxotetrahydropyrimidin-1(2H)-yl)-5-((4-(6-phenylthieno[2,3-d]pyrimidin-4-yl)piperazin-1-yl)methyl)isoindoline-1,3-dione] | A (0% ≤ substrate protein remaining % ≤80%) | B (80%< substrate protein remaining % ≤100%) | B (80%< substrate protein remaining % ≤100%) | B (80%< substrate protein remaining % ≤100%) | A (0% ≤ substrate protein remaining % ≤80%) | A (0% ≤ substrate protein remaining % ≤80%)
